Columns and labels:
[1] = Metabolic stability screen, mouse liver microsomes; assay type: in vitro ADME; conditions: 10 μM substrate, 30 min incubation, 37° C., 1 mM NADPH
Protocol: (§1) Metabolic stability screen: each substrate (10 μM) was incubated with microsomal protein (0.1-0.5 mg/ml) in 50 mM potassium phosphate buffer (pH 7.4) in 48-Well plate. The enzyme reaction was initiated by the addition of 1 mM NADPH, then incubated at 37° C. in a Form a Scientific incubator (Marietta, Ohio, USA) with gentle shaking. The reactions were quenched by the addition of 800 μl of ACN/MeOH (1:1, v/v), containing 0.5 μM of internal standard (IS), after 30 min incubation. Samples were then filtered by using Captiva 96-Well Filtration (Varian, Lake Forest, Calif., USA) and analyzed by LC/MS (mass spectrometry). Liver microsomal incubations were conducted in duplicate.
(§2) The parent remaining in the incubation mixture was determined by LC/MS. The LC/MS system consisted of an Agilent 1100 series (Agilent Technologies, Waldbronn, Germany) and API 2000 (MDS SCIEX, Ontario, Canada). A Luna C8(2) (50×2.0 mm, particle size 3 μm, Phenomenex, Torrance, Calif., USA) was used to quantify each compound at ambient temperature. The mobile phase consisted of (A): 10 mM NH4AC (pH 3.3) and (B): 100% ACN and was delivered at a flow rate of 0.2 ml/min. Elution was achieved using a linear gradient of 0-100% B over 3 min, then held 100% B for 4 min and returned to 100% A in 1 min. The column was equilibrated for 7 min before the next injection.
(§3) The peak area ratios (each substrate over IS) at each incubation time were expressed as the percentage of the ratios (each substrate over IS) of the control samples (0 min incubation). The parent remaining in the incubation mixture was expressed as the percentage of the values at 0 min incubation. The percentage turnover is calculated using the following equation (% turnover=100% turnover−% parent remaining) and is recorded as the percentage turnover in the Table 2.

[2] = Metabolic stability screen, human liver microsomes; assay type: in vitro ADME; conditions: 10 μM substrate, 30 min incubation, 37° C., 1 mM NADPH
Protocol: as §1, §2, §3

[3] = target: T1, truncated human 11β-HSD-1 enzyme (24-287AA) (Homo sapiens, UniProt P28845); experiment: 11β-HSD-1 enzymatic Scintillation Proximity Assay (SPA); assay type: biochemical
T1 construct: truncated human 11β-HSD-1 enzyme (24-287AA); made in house; host or cells: E. coli (crude lysate)
T1 sequence (P28845 24-287): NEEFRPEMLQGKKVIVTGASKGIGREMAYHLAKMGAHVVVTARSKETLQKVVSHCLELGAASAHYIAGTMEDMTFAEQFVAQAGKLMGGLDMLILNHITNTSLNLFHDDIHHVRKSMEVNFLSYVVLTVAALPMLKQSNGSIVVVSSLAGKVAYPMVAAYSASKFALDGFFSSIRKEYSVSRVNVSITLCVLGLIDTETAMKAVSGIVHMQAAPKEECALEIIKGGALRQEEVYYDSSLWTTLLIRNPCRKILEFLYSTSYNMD
Protocol: (§4) The reaction was stopped by adding a non-specific 11β-HSD inhibitor, 18β-glycyrrhetinic acid. The tritiated cortisol was captured by a mixture of an anti-cortisol monoclonal antibody and SPA beads coated with anti-mouse antibodies. The reaction plate was shaken at room temperature and the radioactivity bound to SPA beads was then measured on a β-scintillation counter. The 11-βHSD-1 assay was carried out in 96-well microtiter plates in a total volume of 220 μl. […] In order to drive the reaction in the forward direction, 1 mM G-6-P was also added. Solid compound was dissolved in DMSO to make a 10 mM stock followed by a subsequent 10-fold dilution with 3% DMSO in Tris/EDTA buffer (pH 7.4). […] Reactions were initiated by the addition of 10 μl of 0.1 mg/ml E. coli lysates overexpressing 11β-HSD-1 enzyme. After shaking and incubating plates for 30 minutes at room temperature, reactions were stopped by adding 10 μl of 1 mM glycyrrhetinic acid. The product, tritiated cortisol, was captured by adding 10 μl of […] monoclonal anti-cortisol antibodies and 100 μl SPA beads coated with anti-mouse antibodies. After shaking for 30 minutes, plates were read on a liquid scintillation counter Topcount. Percent inhibition was calculated based on the background and the maximal signal. Wells that contained substrate without compound or enzyme were used as the background, while the wells that contained substrate and enzyme without any compound were considered as maximal signal. Percent of inhibition of each compound was calculated relative to the maximal signal and IC50 curves were generated. This assay was applied to 11β-HSD-2 as well, whereby tritiated cortisol and NAD^+ were used as substrate and cofactor, respectively.

CD-1 mice = experiment: 24-hour inhibitory avoidance in mice after subchronic (3 administration) dosing; assay type: in vivo; conditions: 30 mg/kg PO, BID the day before and one hour before training, vs vehicle control mice
Protocol: Male CD-1 mice were obtained from Charles River, Wilmington, Mass. Mice were group-housed 10 per cage. The body weight upon arrival was 20-25 g. Food and water were available ad libitum except during experiments. Animals were acclimated to the animal facilities for a period of at least one week prior to commencement of experiments. Animals were tested in the light phase of a 12-hour light: 12-hour dark schedule (lights on 0600 hours).
Compound KK and Compound LL were synthesized at Abbott Laboratories. […] Compound KK was administered in a cloudy, fine suspension, while Compound LL was administered in a solution.
On training day, mice were injected with Compound KK, Compound LL or vehicle one-hour PO before training. One hour following injection (start of training) mice were subjected to a training session in which they were placed in a lighted compartment of a two-compartment chamber (Gemini apparatus, San Diego Instruments, San Diego, Calif.) with a manually operated gate separating the compartments. […] Twenty-four hours later mice were again tested in the same apparatus, except without shock, and the transfer latency from the lighted to the dark compartment recorded and used as an index of memory for the punished response 24 hours earlier. […] Data were analyzed using Mann Whitney U comparisons. […]

human 11-β-HSD-2 = target: T2, human 11-β-HSD-2 (Homo sapiens, UniProt P80365); experiment: 11β-HSD-2 Scintillation Proximity Assay (tritiated cortisol, NAD+); assay type: biochemical; conditions: human enzyme, SPA
T2 sequence (P80365 1-405): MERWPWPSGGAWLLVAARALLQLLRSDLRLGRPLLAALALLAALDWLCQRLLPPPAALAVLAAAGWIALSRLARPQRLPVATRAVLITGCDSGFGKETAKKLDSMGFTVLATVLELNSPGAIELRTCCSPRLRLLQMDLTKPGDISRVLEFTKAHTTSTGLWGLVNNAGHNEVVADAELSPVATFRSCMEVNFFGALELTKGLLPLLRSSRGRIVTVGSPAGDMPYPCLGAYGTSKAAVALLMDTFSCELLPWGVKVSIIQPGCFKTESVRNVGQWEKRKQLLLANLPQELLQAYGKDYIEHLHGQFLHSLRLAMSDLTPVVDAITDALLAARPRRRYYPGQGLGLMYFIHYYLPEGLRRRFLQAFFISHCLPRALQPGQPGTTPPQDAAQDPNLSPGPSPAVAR
Protocol: as §4

Mouse Liver Microsomal Turnover (%) [1] | Human Liver Microsomal Turnover (%) [2] | IC50 [3] | IC50 (human 11-β-HSD-2) | Compound | memory retention (transfer latency), FIG. 3 (CD-1 mice)
– | 10% | – | – | NC(=O)C12CC3CC(C1)C(NC(=O)C1(c4ccc(Cl)cc4)CCC1)C(C3)C2 (stereo not shown) [D, E-4-{[1-(4-Chloro-phenyl)-cyclobutanecarbonyl]-amino}-adamantane-1-carboxylic acid amide] | –
– | 83% | – | – | CC(C)(C(=O)NC1C2CC3CC(C2)CC1C3)c1ccccc1 (stereo not shown) [E, N-2-adamantyl-2-methyl-2-phenylpropanamide] | –
– | 62% | – | – | O=C(NC1C2CC3CC(C2)CC1C3)C1(c2ccccc2)CC1 (stereo not shown) [F, N-2-adamantyl-1-phenylcyclopropanecarboxamide] | –

Second part, the molecule before the results:

Compound | Mouse Liver Microsomal Turnover (%) [1] | Human Liver Microsomal Turnover (%) [2] | IC50 [3] | IC50 (human 11-β-HSD-2) | memory retention (transfer latency), FIG. 3 (CD-1 mice)
O=C(O)C12CC3CC(C1)C(NC(=O)C1(c4ccccc4)CC1)C(C3)C2 (stereo not shown) [B, E-4-[(1-Phenyl-cyclopropanecarbonyl)-amino]-adamantane-1-carboxylic acid] | 0% | 2% | 102 nM | – | –
CC1(C(=O)N[C@@H]2[C@@H]3C[C@@H]4C[C@H]2C[C@@](C(N)=O)(C4)C3)CCN(Cc2ccccc2)C1=O (stereo partly shown) [BB] | – | – | – | – | significant improvement in memory retention
CC(C)(C(=O)N[C@@H]1[C@@H]2C[C@@H]3C[C@H]1C[C@@](C(=O)O)(C3)C2)c1ccccc1 [C, E-4-(2-Methyl-2-phenyl-propionylamino)-adamantane-1-carboxylic acid] | 0% | 0% | 82 nM | > 10000 nM | –
O=C(O)C12CC3CC(C1)C(NC(=O)C1(c4ccc(Cl)cc4)CCC1)C(C3)C2 (stereo not shown) [Compound A, E-4-{[1-(4-Chloro-phenyl)-cyclobutanecarbonyl]-amino}-adamantane-1-carboxylic acid] | 5% | 5% | 43 nM | > 10000 nM | –
Cc1ccccc1CN1CCCC(C)(C(=O)NC2C3CC4CC2CC(C(N)=O)(C4)C3)C1=O (stereo not shown) [Compound AA] | – | – | – | – | significant improvement in memory retention
